Reference: the NIST ThermoML archive (doi:10.1016/j.jct.2004.11.009)

Experiment: xn = mol fraction of the nth substance listed
Conditions: 101.33 kPa, Liquid

Cc1cccnc1 [3-methylpyridine] + O
Conditions	mass density, 323.15 K [kg/m3]	mass density, 333.15 K [kg/m3]	mass density, 343.15 K [kg/m3]	viscosity, 323.15 K [mPa·s]	viscosity, 333.15 K [mPa·s]	viscosity, 343.15 K [mPa·s]
x1 = 0.0101	986.6	981.4	975.8	0.6101	0.5203	0.4504
x1 = 0.0211	985.2	979.6	973.7	0.6693	0.5735	0.4888
x1 = 0.033	983.7	977.7	971.7	0.7356	0.6346	0.5355
x1 = 0.0462	982.3	975.8	969.4	0.7921	0.6624	0.5782
x1 = 0.114	975.6	967.9	960.5	1.048	0.866	0.7454
x1 = 0.225	967.7	958.7	950.2	1.23	1.015	0.8494
x1 = 0.36	959.4	950	940.4	1.255	1.042	0.8766
x1 = 0.436	954.9	945.4	936	1.207	1.004	0.8557
x1 = 0.5	951.2	941.8	932.3	1.162	0.9701	0.8315
x1 = 0.6	945.5	936.1	926.8	1.071	0.8988	0.786
x1 = 0.7	940.5	931.1	921.8	0.9777	0.8305	0.7335
x1 = 0.8	935.9	926.7	917.4	0.8686	0.7562	0.673
x1 = 0.9	931.8	922.7	913.6	0.7536	0.6699	0.6135
x1 = 1	928.3	919.3	910.3	0.6565	0.5936	0.539
